Results on 16 molecules are retold here after US20250122207A1, “AP2 ASSOCIATED KINASE 1 INHIBITORS AND USES THEREOF” (Satellos Bioscience Inc., priority 2023, published 2025).

Each structure is given as a SMILES string. Where two headings read alike, the source gives them in different places.

Assay [1] deals with T1, AAK1 (amino acids T27-A365) (Homo sapiens, UniProt Q2M2I8).
T1 construct: against AAK1 (amino acids T27-A365); 6His (N, cleaved yes)
Nature of the assay: AAK1 pSENs assay. Type of assay: biochemical. The protocol: (§1) The recombinant proteins were independently expressed in Escherichia coli BL21(DE3) cells cultured in Luria-Bertani (LB) medium until OD600 reached 0.6-0.8, then cooled to 15° C. and supplemented with 0.5 mM isopropyl 1-thio-D-galactopyranoside (IPTG) induce protein expression 16 h. Cells were harvested and resuspended in lysis buffer (50 mM HEPES pH 7.5, 500 mM NaCl, 5 mM imidazole, 5% glycerol, 0.5 mM Tris (2-carboxyethyl) phosphine (TCEP), cOmplete Protease Inhibitor Tablet (Roche)) and lysed by microfludics high pressure homogenizer (UH-06, Union-Biotech). Proteins were purified using […] chromatography (His FF column, Bestchrom) and eluted stepwise in binding buffer with 20-300 mM imidazole. Removal of the hexahistidine tag was performed at 4° C. overnight using recombinant TEV protease and reacted with BirA to obtain the corresponding biotinylated-AAK1, BIKE or GAK proteins. Further separated in the reverse Strep column (Strep-Tactin® XT, IBA). The Biotin elution sample was collected containing untagged biotinylated protein was then purified by Ion-exchange chromatography (Mono Q 10/100 GL, Cytiva) and Size-exclusion chromatography (HiLoad 16/600 Superdex 200 pg, Cytiva). The pure protein was stored in a storage buffer 50 mM HEPES (pH 7.5), 300 mM NaCl, 5% glycerol at −80° C. Protein were characterized by SDS-PAGE, LC-MS and aSEC.
This example describes one illustrative method for determining the IC50 of the compounds of the present invention against AAK1 (amino acids T27-A365). AAK1 protein was dissolved at 20 nM in 1× enzyme solution (50 mM HEPES pH7.5, 10 mM MgCl2, 1 mM DTT, 1% glycerol, 0.5 mM EGTA, 0.01% Briji35, 0.02% BSA) and 12.5 ul was incubated with 250 nl DMSO or 250 nl compound in DMSO at 25° C. for 15 min. The reaction was started by addition of 12.5 ul of 30 uM AQT0759 (Assayquant, CSKS-AQT0759B) and 70 uM ATP which were diluted in 1× substrate dilution buffer (50 mM HEPES pH7.5, 10 mM MgCl2, 1 mM DTT, 1% glycerol, 0.5 mM EGTA, 0.01% Briji35).

For a further assay, the target named is AAK1 (Homo sapiens, UniProt Q2M2I8). Nature of the assay: pAP2M1 cell-based assay (in-cell Western). The text has this:
pAP2M1 Cell-Based Assay (in-Cell Western):
The plate was read on Licor Odyssey CLx imaging system (LICOR) to acquire fluorescence intensity at 700 channel and 800 channel.
Data analysis: Fluorescence intensity at 700 channel served as internal standard and 800 channel were normalized with 700 channel.

Assay [2] concerns the target T2, BIKE (amino acids S38-E345) (K320A, K321A) (Homo sapiens, UniProt Q9NSY1, K320A/K321A).
T2 construct: against BIKE (amino acids S38-E345) (K320A, K321A); 6His (N, cleaved yes)
Briefly: BIKE pSENs assay. The format is biochemical. The procedure: as §1
BIKE protein was dissolved at 20 nM in 1× enzyme solution (50 mM HEPES pH7.5, 10 mM MgCl2, 1 mM DTT, 1% glycerol, 0.5 mM EGTA, 0.01% Briji35, 0.02% BSA) and 12.5 ul was incubated with 250 nl DMSO or 250 nl compound in DMSO at 25° C. for 15 min. The reaction was started by addition of 12.5 ul of 30 uM AQT0759 (Assayquant, CSKS-AQT0759B) and 40 uM ATP which were diluted in 1× substrate dilution buffer (50 mM HEPES pH7.5, 10 mM MgCl2, 1 mM DTT, 1% glycerol, 0.5 mM EGTA, 0.01% Briji35).

The mark [3] stands for this setting: class symbols, read-out: AAK1 pSENs: EIC50.
The mark [4] stands for this setting: Hela cells co-transfected with AP2M1 and AAK1, 3 hr treatment, class symbols, read-out: AAK1 In-cell Western: IC50.
[5] abbreviates: class symbols, read-out: BIKE pSENs: IC50.

T1 sequence (Q2M2I8 27-365): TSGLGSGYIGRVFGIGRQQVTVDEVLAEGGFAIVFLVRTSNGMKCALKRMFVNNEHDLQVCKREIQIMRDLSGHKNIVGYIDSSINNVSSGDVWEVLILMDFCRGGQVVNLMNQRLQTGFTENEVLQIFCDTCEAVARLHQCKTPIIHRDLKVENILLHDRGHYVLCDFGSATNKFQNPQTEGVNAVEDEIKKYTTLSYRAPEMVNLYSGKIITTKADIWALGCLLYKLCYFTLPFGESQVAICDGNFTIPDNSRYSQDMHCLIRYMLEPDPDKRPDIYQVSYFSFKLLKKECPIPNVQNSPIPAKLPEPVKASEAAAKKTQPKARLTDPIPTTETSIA
T2 sequence (Q9NSY1 38-345 K320A/K321A): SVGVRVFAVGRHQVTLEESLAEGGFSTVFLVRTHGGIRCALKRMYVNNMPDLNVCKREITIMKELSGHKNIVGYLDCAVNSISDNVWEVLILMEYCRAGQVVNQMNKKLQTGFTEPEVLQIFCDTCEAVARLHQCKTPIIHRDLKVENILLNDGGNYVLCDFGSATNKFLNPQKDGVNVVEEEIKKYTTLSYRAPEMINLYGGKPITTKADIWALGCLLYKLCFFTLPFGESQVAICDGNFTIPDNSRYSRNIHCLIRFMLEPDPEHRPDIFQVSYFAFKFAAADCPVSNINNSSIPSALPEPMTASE
AAK1, sequence (Q2M2I8 whole entry): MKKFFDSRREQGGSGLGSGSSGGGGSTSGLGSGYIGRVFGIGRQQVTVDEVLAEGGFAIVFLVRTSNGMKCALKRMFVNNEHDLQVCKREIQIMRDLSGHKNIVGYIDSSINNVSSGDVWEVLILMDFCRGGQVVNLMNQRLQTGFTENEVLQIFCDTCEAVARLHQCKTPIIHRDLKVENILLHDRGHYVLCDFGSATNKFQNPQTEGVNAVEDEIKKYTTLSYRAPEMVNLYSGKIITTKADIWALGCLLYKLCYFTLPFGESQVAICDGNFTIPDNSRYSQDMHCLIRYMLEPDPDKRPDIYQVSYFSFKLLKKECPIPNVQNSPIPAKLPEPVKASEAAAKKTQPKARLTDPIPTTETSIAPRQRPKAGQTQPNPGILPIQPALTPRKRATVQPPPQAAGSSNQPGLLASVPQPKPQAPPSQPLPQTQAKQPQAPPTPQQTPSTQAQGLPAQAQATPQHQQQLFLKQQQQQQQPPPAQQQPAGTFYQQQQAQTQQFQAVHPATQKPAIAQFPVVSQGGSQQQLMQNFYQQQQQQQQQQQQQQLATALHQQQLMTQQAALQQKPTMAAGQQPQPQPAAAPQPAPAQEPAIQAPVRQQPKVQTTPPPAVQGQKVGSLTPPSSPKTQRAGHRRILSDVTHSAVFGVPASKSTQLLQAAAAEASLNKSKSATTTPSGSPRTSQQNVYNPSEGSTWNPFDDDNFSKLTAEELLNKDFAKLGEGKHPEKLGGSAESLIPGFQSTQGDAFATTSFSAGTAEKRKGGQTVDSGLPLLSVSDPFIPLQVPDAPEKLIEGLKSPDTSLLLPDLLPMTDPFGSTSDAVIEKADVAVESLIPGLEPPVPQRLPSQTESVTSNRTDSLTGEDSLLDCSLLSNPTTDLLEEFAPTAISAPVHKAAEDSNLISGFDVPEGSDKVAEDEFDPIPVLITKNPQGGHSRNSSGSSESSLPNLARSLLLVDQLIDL

Consider `CN(CCNc1ccn2ncc(-c3cccnc3OC3CN(C(=O)OC(C)(C)C)C3)c2n1)C(=O)OC(C)(C)C` [Compound I-62, Tert-butyl3-[[3-[5-[2-[tert-butoxycarbonyl(methyl)amino]ethylamino]pyrazolo[1,5-a]pyrimidin-3-yl]-2-pyridyl]oxy]azetidine-1-carboxylate], for which the figures for the IC50 (in assay [1] (setting [3]); on AAK1 (setting [4]); in assay [2] (setting [5])) were 1 to 50 nM, > 1500 nM and 151 to 500 nM, respectively.
As for `[2H]C1([2H])N(C(=O)O[C@H]2CC(=O)N(C)C2)C([2H])([2H])C([2H])([2H])N(c2ccn3ncc(-c4cccnc4OC4CC4)c3n2)C1([2H])[2H]` [Compound I-73, [(3S)-1-methyl-5-oxo-pyrrolidin-3-yl]-4-[3-[2-(cyclopropoxy)-3-pyridyl]pyrazolo[1,5-a]pyrimidin-5-yl]-2,2,3,3,5,5,6,6-octadeuterio-piperazine-1-carboxylate], the IC50 is 1 to 50 nM in assay [1], 501 to 1500 nM against AAK1 and 501 to 1500 nM in assay [2]. For the same molecule, in assay [1] (ratio of AAK1 pSENs activity to GAK pSENs activity, class symbols), the “AAK1:GAK pSENs Selectivity” value is “A (A: ≤0.015)”.
With `[2H]C([2H])([2H])N1C[C@@H](OC(=O)N2CCN(c3ccn4ncc(-c5cccnc5OC5CC5)c4n3)CC2)CC1=O` [Compound I-113, [(3S)-5-oxo-1-(trideuteriomethyl)pyrrolidin-3-yl]4-[3-[2-(cyclopropoxy)-3-pyridyl]pyrazolo[1,5-a]pyrimidin-5-yl]piperazine-1-carboxylate], the IC50 in assay [1] lay in the range of 1 to 50 nM; at AAK1 (setting [4]), 151 to 500 nM; in assay [2], 501 to 1500 nM.
`CC(=O)N1CC(Oc2ncccc2-c2cnn3ccc(N4CCN(C(=O)O[C@@H]5CNC(=O)C5)CC4)nc23)C1` [Compound I-59, (S)-5-oxopyrrolidin-3-yl 4-(3-(2-((1-acetylazetidin-3-yl)oxy)pyridin-3-yl)pyrazolo[1,5-a]pyrimidin-5-yl)piperazine-1-carboxylate]: the IC50 in assay [1] (setting [3]) is 1 to 50 nM; at AAK1 (setting [4]), > 1500 nM; in assay [2] (setting [5]), 501 to 1500 nM.
Consider `[2H]C([2H])([2H])N1C[C@@H](OC(=O)N2CCN(c3nc4c(-c5cc(F)cnc5OC5CC5)cnn4cc3F)CC2)CC1=O` [Compound I-118, [(3S)-5-oxo-1-(trideuteriomethyl)pyrrolidin-3-yl]4-[3-[2-(cyclopropoxy)-5-fluoro-3-pyridyl]-6-fluoro-pyrazolo[1,5-a]pyrimidin-5-yl]piperazine-1-carboxylate], for which the IC50 lay within 1 to 50 nM in assay [1] (setting [3]) and 51 to 150 nM in assay [2] (setting [5]).
On to `[2H]C([2H])([2H])N1C[C@@H](OC(=O)N2CCN(c3nc4c(-c5cccnc5OC5CC5)cnn4cc3F)CC2)CC1=O` [Compound I-116, [(3S)-5-oxo-1-(trideuteriomethyl)pyrrolidin-3-yl]4-[3-[2-(cyclopropoxy)-3-pyridyl]-6-fluoro-pyrazolo[1,5-a]pyrimidin-5-yl]piperazine-1-carboxylate], for which the values for the IC50 in assay [1] (setting [3]) and in assay [2] (setting [5]) were 1 to 50 nM and 51 to 150 nM, respectively.
With `CN1C[C@@H](OC(=O)N2CCN(c3nc4c(-c5cccnc5OC5CCCCC5)cnn4cc3F)CC2)CC1=O` [Compound I-123, [(3S)-1-methyl-5-oxo-pyrrolidin-3-yl]-4-[3-[2-(cyclohexoxy)-3-pyridyl]-6-fluoro-pyrazolo[1,5-a]pyrimidin-5-yl]piperazine-1-carboxylate], the IC50 in assay [1] (setting [3]) is 151 to 500 nM; at AAK1 (setting [4]) it was > 1500 nM.
On to `O=C(O[C@H]1CO[C@H]2OCC[C@H]21)N1CCN(c2ccn3ncc(-c4ccncn4)c3n2)CC1` [Compound I-67, [(3aS,4R,6aR)-2,3,3a,4,5,6a-hexahydrofuro[2,3-b]furan-4-yl]4-(3-pyrimidin-4-ylpyrazolo[1,5-a]pyrimidin-5-yl)piperazine-1-carboxylate], for which the IC50 was 501 to 1500 nM in assay [1] (setting [3]) and > 1500 nM at AAK1 (setting [4]).
On the same counts, the results for `CN(CCN1C[C@@H](OC(=O)N2CCN(c3ccn4ncc(-c5cccnc5OC5CC5)c4n3)CC2)CC1=O)C(=O)OC(C)(C)C` [Compound I-35, (S)-1-(2-((tert-butoxycarbonyl)(methyl)amino)ethyl)-5-oxopyrrolidin-3-yl-4-(3-(2-cyclopropoxypyridin-3-yl)pyrazolo[1,5-a]pyrimidin-5-yl)piperazine-1-carboxylate] are 51 to 150 nM and > 1500 nM.
In the case of `O=C1C[C@H](OC(=O)N[C@H]2CCN(c3ccn4ncc(-c5cccnc5OC5CC5)c4n3)C2)CN1` [Compound I-55, (S)-5-oxopyrrolidin-3-yl ((S)-1-(3-(2-cyclopropoxypyridin-3-yl)pyrazolo[1,5-a]pyrimidin-5-yl)pyrrolidin-3-yl)carbamate], the IC50 in assay [1] (setting [3]) is 151 to 500 nM; on AAK1 (setting [4]), > 1500 nM.
The like results for `COC(=O)N1CC(Oc2ncccc2-c2cnn3ccc(N4CCN(C(=O)O[C@@H]5CC(=O)N(CCO)C5)CC4)nc23)C1` [Compound I-84, [(3R)-1-(2-hydroxyethyl)-5-oxo-pyrrolidin-3-yl]4-[3-[2-(1-methoxycarbonylazetidin-3-yl)oxy-3-pyridyl]pyrazolo[1,5-a]pyrimidin-5-yl]piperazine-1-carboxylate] were, in that order, 151 to 500 nM and > 1500 nM.
Consider `CC(C)Nc1ncccc1-c1cnn2ccc(N3CCN(C(=O)O[C@@H]4CNC(=O)C4)CC3)nc12` [Compound I-47, [(3S)-5-oxopyrrolidin-3-yl]4-[3-[2-(isopropylamino)-3-pyridyl]pyrazolo[1,5-a]pyrimidin-5-yl]piperazine-1-carboxylate], for which the IC50 (in assay [1] (setting [3]); on AAK1 (setting [4])) was > 1500 nM each time.
`O=C1C[C@H](OC(=O)N2CCN(c3ccn4ncc(-c5cccnc5OC5CC5)c4n3)C[C@H]2C(=O)O)CN1` [Compound I-41-4C, (S)-4-(3-(2-Cyclopropoxypyridin-3-yl)pyrazolo[1,5-a]pyrimidin-5-yl)-1-((((S)-5-oxopyrrolidin-3-yl)oxy)carbonyl)piperazine-2-carboxylic acid]: the IC50 (in assay [1] (setting [3]); on AAK1 (setting [4])) was > 1500 nM each time.
On to `CN(C)CCN1CC[C@@](C)(OC(=O)N2CCN(c3ccn4ncc(-c5cccnc5OC5CC5)c4n3)CC2)C1` [Compound I-53, (R)-1-(2-(dimethylamino)ethyl)-3-(methylpyrrolidin-3-yl)-4-(3-(2-cyclopropoxypyridin-3-yl)pyrazolo[1,5-a]pyrimidin-5-yl)piperazine-1-carboxylate], for which the IC50 fell in the range of 1 to 50 nM in assay [1] (setting [3]) and 151 to 500 nM on AAK1 (setting [4]).
The like results for `Cc1nn2ccc(N3CCN(C(=O)O[C@H]4CC(=O)N(C)C4)CC3)nc2c1-c1cccnc1OC1CC1` [Compound I-108, [(3S)-1-methyl-5-oxo-pyrrolidin-3-yl]-4-[3-[2-(cyclopropoxy)-3-pyridyl]-2-methyl-pyrazolo[1,5-a]pyrimidin-5-yl]piperazine-1-carboxylate] were, in that order, > 1500 nM and > 1500 nM.
On the same counts, the results for `COC(=O)N1CC(Oc2ncccc2-c2cnn3ccc(N4CCN(C(=O)O[C@@H]5CC(=O)N(CCOCc6ccccc6)C5)CC4)nc23)C1` [Compound I-84-6, [(3R)-1-(2-benzyloxyethyl)-5-oxo-pyrrolidin-3-yl]-4-[3-[2-(1-methoxycarbonyl-azetidin-3-yl)oxy-3-pyridyl]pyrazolo[1,5-a]pyrimidin-5-yl]piperazine-1-carboxylate] are 151 to 500 nM and > 1500 nM.
